The source of these data is patent publication US20050276834A1, “Mole bait and systems and methods for making and using an improved mole bait” (priority 2004, published 2005).

The subject of the assay is moles. Briefly: Mole bait article fed to moles, killing of moles. Type of assay: in vivo. Particulars: bromethalin absorbed from a single mole bait article; oral consumption by mole. On the procedure:
In developing the mole bait article containing gelatin, sorbitol and glycerin according to the above-outlined exemplary embodiment, the applicants screened a large number of elastomers and plasticizers. This screening included determining an appropriate ratio of components by stretching the resultant mole bait article, where the length of the mole bait article was measured before, during and after stretching. This screening also included stretching the mole bait article until the mole bait article broke, thus allowing the tensile strength of the mole bait article to be determined. This screening included providing the mole bait article having the identified formula to moles and observing whether the moles would consume the resultant mole bait article. Finally, this screening included determining whether the mole bait article, when digested by the moles, is sufficiently digestible that a single mole bait article releases an effective amount of the active ingredient into the moles' systems.
In contrast, in various exemplary embodiments of the mole bait article according to this invention, the mole bait article is sufficiently digestible that a single mole bait article according to this invention, upon being consumed and digested, is able to release an effective dose of the active ingredient to the mole. […]

For the molecule `CN(c1c(Br)cc(Br)cc1Br)c1c([N+](=O)[O-])cc([N+](=O)[O-])cc1C(F)(F)F` [Bromethalin], the “dose received from a single mole bait article during its time in the mole's digestive system” value is “lethal dose from a single one of the mole bait articles”.
